In patent US11702429B2, “mTORC modulators and uses thereof” (Aeovian Pharmaceuticals, Inc., priority 2019, dated 2023):
Like-named read-outs stand apart in the source and are kept apart here.

Experiments:
mTORC2 = biological target: T1, mTORC2 (Homo sapiens, UniProt P42345+P62942); assay: Inhibition assay for mTORC2: phosphorylation of pAkt at Ser473, AlphaLISA in PC3 cells; type: cell-based; settings: for IC50: read-out: pIC50 mTORC2 (converted)
T1 construct: endogenous in cells; host or cells: PC3 cells (human prostate adenocarcinoma)

mTORC1 = biological target: T2, mTORC1 (Homo sapiens, UniProt P42345+P62942); assay: Inhibition assay for mTORC1: phosphorylation of pS6K at Thr389, AlphaLISA in PC3 cells; type: cell-based; settings: for IC50: read-out: pIC50 mTORC1 (converted)
T2 construct: endogenous in cells; host or cells: PC3 cells (human prostate adenocarcinoma)

[1] = PC3 cells, treated 24 hours, pAkt Ser473, AlphaLISA, C16 diastereomer mixtures not separated
[2] = PC3 cells, treated 24 hours, pS6K Thr389, AlphaLISA, C16 diastereomer mixtures not separated

T1 sequence (P62942 2-108 limits assumed, other chains not shown): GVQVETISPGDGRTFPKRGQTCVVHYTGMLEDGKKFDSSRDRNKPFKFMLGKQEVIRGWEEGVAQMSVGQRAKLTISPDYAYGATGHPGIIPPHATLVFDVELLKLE

| IC50 (mTORC2) | IC50 (mTORC1) | Structure (SMILES) | also measured |
| --- | --- | --- | --- |
| < 1000 nM | < 0.316 nM | COC1C[C@@H]2CC[C@@H](C)[C@@](O)(O2)C(=O)C(=O)N2CCCCC2C(=O)O[C@H]([C@H](C)C[C@@H]2CC[C@@H](OC(=O)N(C)CCCO)[C@H](OC)C2)CC(=O)[C@H](C)/C=C(\C)[C@@H](O)[C@@H](OC)C(=O)[C@H](C)C[C@H](C)/C=C/C=C/C=C/1C (stereo partly drawn) [Compound 338] | – |
| < 1000 nM | < 0.316 nM | COC1C[C@@H]2CC[C@@H](C)[C@@](O)(O2)C(=O)C(=O)N2CCCCC2C(=O)O[C@H]([C@H](C)C[C@@H]2CC[C@@H](OCc3ccccc3)[C@H](OC)C2)CC(=O)[C@H](C)/C=C(\C)[C@@H](O)[C@@H](OC)C(=O)[C@H](C)C[C@H](C)/C=C/C=C/C=C/1C (stereo partly drawn) [Compound 305] | – |
| – | – | CO[C@@H]1C[C@H](C[C@@H](C)[C@@H]2CC(=O)[C@H](C)/C=C(\C)[C@@H](O)[C@@H](OC)C(=O)[C@H](C)C[C@H](C)/C=C/C=C/C=C(\C)C(OCCO)C[C@@H]3CC[C@@H](C)[C@@](O)(O3)C(=O)C(=O)N3CCCC[C@H]3C(=O)O2)CC[C@H]1OCCCN1CCN(C)CC1 (mixture of isomers) [Compound 34] | IC50 (mTORC2; [1]): > 10000 nM; IC50 (mTORC1; [2]): 0.316 to 3.16 nM |
| < 1000 nM | < 0.316 nM | COC1C[C@@H]2CC[C@@H](C)[C@@](O)(O2)C(=O)C(=O)N2CCCCC2C(=O)O[C@H]([C@H](C)C[C@@H]2CC[C@@H](OP(C)(C)=O)[C@H](OC)C2)CC(=O)[C@H](C)/C=C(\C)[C@@H](O)[C@@H](OC)C(=O)[C@H](C)C[C@H](C)/C=C/C=C/C=C/1C (stereo partly drawn) [Compound 342] | – |
| < 1000 nM | < 0.316 nM | COC1C[C@@H]2CC[C@@H](C)[C@@](O)(O2)C(=O)C(=O)N2CCCCC2C(=O)O[C@H]([C@H](C)C[C@@H]2CC[C@@H](OC(=O)NCCc3ccncc3)[C@H](OC)C2)CC(=O)[C@H](C)/C=C(\C)[C@@H](O)[C@@H](OC)C(=O)[C@H](C)C[C@H](C)/C=C/C=C/C=C/1C (stereo partly drawn) [Compound 334] | – |
| – | – | COCCCO[C@@H]1CC[C@@H](C[C@@H](C)[C@@H]2CC(=O)[C@H](C)/C=C(\C)[C@@H](O)[C@@H](OC)C(=O)[C@H](C)C[C@H](C)/C=C/C=C/C=C(\C)C(OCCOC)C[C@@H]3CC[C@@H](C)[C@@](O)(O3)C(=O)C(=O)N3CCCCC3C(=O)O2)C[C@H]1OC (stereo partly drawn) [Compound 14] | pIC50 mTORC2 (mTORC2; [1]): A (PIC50 for mTORC2 of <5 as A); pIC50 mTORC1 (mTORC1; [2]): A (pIC50 for mTORC1 of >9.5 as A) |
